Patent US4066753A, “Neomycin and paromomycin derivatives” (Canadian Patents and Development Limited, priority 1976, dated 1978)
In brackets after ≈: the same amount, converted by molar mass. Where two headings read alike, the source gives them in different places.

Key:
Type in all cases: cell-based
[1] = test system: P. aeruginosa 359; test: IN VITRO antibacterial activity, P. aeruginosa 359; conditions: Pseudomonas aeruginosa, 359, 24 h
Experimental: (§1) In the Tables above MIC stands for minimum inhibitory concentration and
(§2) the results were obtained by providing halving dilutions of the test
(§3) compound in nutrient broth (concentrations usually range from 1/10,000 to
(§4) 1/320,000). These solutions are inoculated with the test organism,
(§5) incubated for 24 hours at 37° C and then examined for the presence
(§6) of growth. A test compound found to have a minimum inhibitory
(§7) concentration (MIC) of 1/160,000 is generally considered as a lead.

[2] = test system: S. fecalis 353; test: IN VITRO antibacterial activity, S. fecalis 353; conditions: 24 h
Experimental: as §1, §2, §3, §4, §5, §6, §7

[3] = test system: A. aerogenes 357; test: IN VITRO antibacterial activity, A. aerogenes 357; conditions: Klebsiella aerogenes, 357, 24 h
Experimental: as §1, §2, §3, §4, §5, §6, §7

[4] = test system: S. pullorum 358; test: IN VITRO antibacterial activity, S. pullorum 358; conditions: Salmonella enterica, PULLORUM, 24 h
Experimental: as §1, §2, §3, §4, §5, §6, §7

[5] = test system: Pr. mirabilis 360; test: IN VITRO antibacterial activity, Pr. mirabilis 360; conditions: Proteus mirabilis, 360, 24 h
Experimental: as §1, §2, §3, §4, §5, §6, §7

[6] = test system: S. marcesceus 854 (ATCC → 103); test: IN VITRO antibacterial activity, S. marcesceus 854 (ATCC → 103); conditions: 24 h
Experimental: as §1, §2, §3, §4, §5, §6, §7

[7] = test system: S. pyogenes S B352; test: IN VITRO antibacterial activity, S. pyogenes S B352; conditions: Streptococcus pyogenes, SB352, 24 h
Experimental: as §1, §2, §3, §4, §5, §6, §7

[8] = test system: Kl. pneumoniae 855 (ATCC 10081); test: IN VITRO antibacterial activity, Kl. pneumoniae 855 (ATCC 10081); conditions: Klebsiella pneumoniae, ATCC10081, nutrient broth, 24 hours at 37° C
Experimental: as §1, §2, §3, §4, §5, §6, §7

[9] = test system: Pr. vulgaris 316; test: IN VITRO antibacterial activity, Pr. vulgaris 316; conditions: Proteus vulgaris, 316, 24 h
Experimental: as §1, §2, §3, §4, §5, §6, §7

[10] = test system: S. pyogenes R 353; test: IN VITRO antibacterial activity, S. pyogenes R 353; conditions: Streptococcus pyogenes, R353, 24 h
Experimental: as §1, §2, §3, §4, §5, §6, §7

[11] = test system: E. Coli 198 (ATCC 1/229); test: IN VITRO antibacterial activity, E. Coli 198 (ATCC 1/229); conditions: Escherichia coli, ATCC1, 24 h
Experimental: as §1, §2, §3, §4, §5, §6, §7

[12] = test system: E. coli B989; test: IN VITRO antibacterial activity against resistant organisms, E. coli B989; conditions: resistant organism E. coli B989, nutrient broth, 24 hours at 37° C
Experimental: as §1, §2, §3, §4, §5, §6, §7

[13] = test system: P. aeruginosa 377; test: IN VITRO antibacterial activity against resistant organisms, P. aeruginosa 377; conditions: resistant organism P. aeruginosa 377, nutrient broth, 24 hours at 37° C
Experimental: as §1, §2, §3, §4, §5, §6, §7

[14] = test system: P. aeruginosa 87442; test: IN VITRO antibacterial activity against resistant organisms, P. aeruginosa 87442; conditions: resistant organism P. aeruginosa 87442, nutrient broth, 24 hours at 37° C
Experimental: as §1, §2, §3, §4, §5, §6, §7

[15] = test system: E. coli B1002; test: IN VITRO antibacterial activity against resistant organisms, E. coli B1002; conditions: resistant organism E. coli B1002, nutrient broth, 24 hours at 37° C
Experimental: as §1, §2, §3, §4, §5, §6, §7

[16] = test system: S. pyogenes R; test: IN VITRO antibacterial activity, S. pyogenes R; conditions: Streptococcus pyogenes, 24 h
Experimental: as §1, §2, §3, §4, §5, §6, §7

[17] = test system: S. pyogenes S; test: IN VITRO antibacterial activity, S. pyogenes S; conditions: Streptococcus pyogenes, 24 h
Experimental: as §1, §2, §3, §4, §5, §6, §7

[18] = test system: S. pullorm; test: IN VITRO antibacterial activity, S. pullorm; conditions: 24 h
Experimental: as §1, §2, §3, §4, §5, §6, §7

[19] = test system: S. marcesceus; test: IN VITRO antibacterial activity, S. marcesceus; conditions: 24 h
Experimental: as §1, §2, §3, §4, §5, §6, §7

[20] = test system: P. mirabilis; test: IN VITRO antibacterial activity, P. mirabilis; conditions: Proteus mirabilis, 24 h
Experimental: as §1, §2, §3, §4, §5, §6, §7

[21] = test system: E. coli B996; test: IN VITRO antibacterial activity, E. coli B996 (resistant to Kanamycin and paromomycin); conditions: Escherichia coli, nutrient broth, 24 hours at 37° C
Experimental: as §1, §2, §3, §4, §5, §6, §7

[22] = test system: S. fecalis; test: IN VITRO antibacterial activity, S. fecalis; conditions: 24 h
Experimental: as §1, §2, §3, §4, §5, §6, §7

[23] = test system: P. aeruginosa; test: IN VITRO antibacterial activity, P. aeruginosa; conditions: Pseudomonas aeruginosa, 24 h
Experimental: as §1, §2, §3, §4, §5, §6, §7

[24] = test system: E. coli 198; test: IN VITRO antibacterial activity, E. coli 198; conditions: Escherichia coli, 198, 24 h
Experimental: as §1, §2, §3, §4, §5, §6, §7

[25] = test system: A. aerogenes; test: IN VITRO antibacterial activity, A. aerogenes; conditions: Klebsiella aerogenes, 24 h
Experimental: as §1, §2, §3, §4, §5, §6, §7

[26] = test system: K. pneumoniae; test: IN VITRO antibacterial activity, K. pneumoniae; conditions: Klebsiella pneumoniae, 24 h
Experimental: as §1, §2, §3, §4, §5, §6, §7

[27] = Escherichia coli, read-out: MIC
[28] = Pseudomonas aeruginosa, read-out: MIC

Compound: NC[C@@H]1O[C@H](O[C@H]2[C@@H](O)[C@H](O[C@@H]3[C@@H](O)[C@H](N)C[C@H](N)[C@H]3O[C@H]3O[C@H](CN)[C@@H](O)[C@H](O)[C@H]3N)O[C@@H]2CO)[C@H](N)[C@@H](O)[C@@H]1O [Neomycin B, neomycin B]
- MIC [1]: 0.8 µg/mL (≈ 1.3 µM)
- MIC [2]: 0.8 µg/mL (≈ 1.3 µM)
- MIC [3]: < 0.2 µg/mL
- MIC [4]: < 0.2 µg/mL
- MIC [5]: 0.4 µg/mL (≈ 0.651 µM)
- MIC [6]: < 0.2 µg/mL
- MIC [7]: < 0.2 µg/mL
- MIC [8]: < 0.2 µg/mL
- MIC [9]: < 0.2 µg/mL
- MIC [10]: < 0.2 µg/mL
- MIC [11]: 0.8 µg/mL (≈ 1.3 µM)

Compound: NC[C@@H]1O[C@H](O[C@H]2[C@@H](O)[C@H](O[C@@H]3[C@@H](O)[C@H](N)C[C@H](N)[C@H]3O[C@H]3O[C@H](CN)[C@@H](O)[C@H](O)[C@H]3N)O[C@@H]2CO)[C@H](N)[C@@H](O)[C@@H]1O [Neomycin]
- MIC [12, 27]: 1.6 µg/mL (≈ 2.6 µM)
- MIC [13, 28]: 0.4 µg/mL (≈ 0.651 µM)
- MIC [14, 28]: < 0.2 µg/mL
- MIC [15, 27]: 50 µg/mL (≈ 81.3 µM)

Compound: NC[C@@H]1O[C@H](O[C@H]2[C@@H](O)[C@H](O[C@@H]3[C@@H](O)[C@H](N)C[C@H](N)[C@H]3O[C@H]3O[C@H](CO)[C@@H](O)[C@H](O)[C@H]3N)O[C@@H]2CO)[C@H](N)[C@@H](O)[C@@H]1O [Paromomycin]
- MIC [16]: < 0.2 µg/mL
- MIC [17]: < 0.2 µg/mL
- MIC [18]: > 0.2 µg/mL
- MIC [19]: 0.4 µg/mL (≈ 0.65 µM)
- MIC [20]: > 0.2 µg/mL
- MIC [21]: > 100 µg/mL
- MIC [22]: 1.6 µg/mL (≈ 2.6 µM)
- MIC [23]: 0.8 µg/mL (≈ 1.3 µM)
- MIC [24]: 0.4 µg/mL (≈ 0.65 µM)
- MIC [25]: > 0.2 µg/mL
- MIC [26]: > 0.2 µg/mL

Compound: Gentamycin
- MIC [12]: < 0.2 µg/mL
- MIC [13]: < 0.2 µg/mL
- MIC [14]: < 0.2 µg/mL
- MIC [15]: < 0.2 µg/mL
